In publication PMC4169866 (Investigational New Drugs, 2014):
Entries after “also recorded” stand apart in the source; their conditions may differ.

Tests used:
pCTD (pSer2) U2OS = assay: Cellular assay for inhibition of RNA polymerase CTD (Ser2) phosphorylation (pCTD), U2OS; format: cell-based; settings: Homo sapiens, n=1
Method: U20S cells are cultured in McCoy’s 5A modified media (Invitrogen), supplemented with 10% FBS and plated in 96-well, flat-bottom plates at a density of 5,000 cells/well for incubation overnight. Compounds in DMSO stock solution are diluted serially 1:3 in McCoy’s 5A media and incubated with cells for 16 hours for multiplexing pCTD/DNA content readouts. Cells are fixed with Prefer (Anatech LTD, MI) for 30 minutes at room temperature and permeated with 0.1% Triton-X 100 in PBS or cold methanol (-20°C) for 15 minutes, respectively. After blocking with 1% BSA/PBS for 30 min, cells are incubated with primary antibody (CTD p-Ser2, Covance) at 1:1000 dilution in 1% BSA/PBS containing 50 ug/ml RNAse (R6513, Sigma) at 4°C overnight. […] The IC50 and EC50 values are determined by curve fitting to a 4-parameter logistic for each output using ACTIVITY BASE™.
The assay detects CDK9 activity through both the inhibition of phosphorylation ser2 of the C-terminal repeat domain (pCTD) of RNA polymerase II, and a CDK9-modulated G2/M arrest [accumulation of cells with 4N DNA content]

U2OS cells = assay: DNA content (cell cycle) in U2OS phenotypic assay; format: cell-based, human
Method: U20S cells are cultured in McCoy's 5A modified media (Invitrogen), supplemented with 10% FBS and plated in 96-well, flat-bottom plates at a density of 5,000 cells/well for incubation overnight. Compounds in DMSO stock solution are diluted serially 1:3 in McCoy's 5A media and incubated with cells for 16 hours for multiplexing pCTD/DNA content readouts. Cells are fixed with Prefer (Anatech LTD, MI) for 30 minutes at room temperature and permeated with 0.1% Triton-X 100 in PBS or cold methanol (-20°C) for 15 minutes, respectively. After blocking with 1% BSA/PBS for 30 min, cells are incubated with primary antibody (CTD p-Ser2, Covance) at 1:1000 dilution in 1% BSA/PBS containing 50 ug/ml RNAse ([…], Sigma) at 4°C overnight. […] Table S1 and Figure S1.

colo-205 cells = assay: DNA content / G1 arrest assay, colo-205 (Acumen); format: cell-based, human; settings: for 2N cell population / 4N cell population / S cell population: Colo-205 cells
Method: (§1) Details for the cellular assays are provided in the supplemental materials. Briefly, image-based assays (Acumen Explorer, TPP LabTech) were used for compound screening. […] After treatment, the cells were washed, fixed and stained with antibodies to detect phosphoproteins and Propidium Iodide to monitor DNA content. The plates were then analyzed on an Acumen Explorer (TTP Labtech). The IC50 and EC50 values are determined by curve fitting to a 4-parameter logistic for each output using ACTIVITY BASE™ software.
(§2) Fixed cells are blocked with 1% bovine serum albumin (BSA, Amersham cat # RPN412V) for 30 minutes. […] Image analysis is based on cellular fluorescent signals for identifying cells in different subpopulations. Assay outputs are a percentage of each identified subpopulations; percent phosphoRB positive, percent 2 N, and percent 4 N. The IC50 and EC50 values are determined by curve fitting to a 4-parameter logistic for each output using ACTIVITY BASE™.

[1] = phase 1 study in advanced cancer patients ref 38, 39; cited from earlier work
[2] = design: method as in manuscript in preparation; settings: ref manuscript in preparation; cited from earlier work
[3] = tested on: Rb-proficient MDA-MB-231 breast cancer cells; assay: Flow cytometry cell cycle distribution, MDA-MB-231; format: cell-based, human
Method: (§3) Flow cytometry was also used to determine cell cycle distribution in cell lines, as described in the supplemental materials.
(§4) Flow cytometry was used to determine cell cycle distribution in cell lines. Cells were cultured in growth media under subconfluent conditions and treated with indicated concentrations of compound solubilized in DMSO for 24 hours at 37°C/5% CO2. After treatment, cells were collected, washed once with 4° C PBS, and fixed with 70% ethanol/30% water at -20 °C for 30 minutes. Cells were then collected by centrifugation, washed once with PBS, and stained for 30 minutes at room temperature by the addition of 1 mL of propidium iodide/Triton X-100 staining solution (20µg/mL of propidium iodide, 200µg/mL DNase-free RNase A, 0.1%(v/v) Triton x-100). Cell cycle analysis was performed using a Cytomics™ FC500 (Coulter); data were analyzed using ModFit v3.1 software (Verity).

TRKA = biological target: T1, TRKA (Homo sapiens, UniProt P04629); assay: Millipore (UBI) kinase panel TRKA; format: biochemical; settings: generated at millipore (UBI) kinase panel
T1 construct: purchased Millipore/UBI
T1 sequence (P04629 33-796): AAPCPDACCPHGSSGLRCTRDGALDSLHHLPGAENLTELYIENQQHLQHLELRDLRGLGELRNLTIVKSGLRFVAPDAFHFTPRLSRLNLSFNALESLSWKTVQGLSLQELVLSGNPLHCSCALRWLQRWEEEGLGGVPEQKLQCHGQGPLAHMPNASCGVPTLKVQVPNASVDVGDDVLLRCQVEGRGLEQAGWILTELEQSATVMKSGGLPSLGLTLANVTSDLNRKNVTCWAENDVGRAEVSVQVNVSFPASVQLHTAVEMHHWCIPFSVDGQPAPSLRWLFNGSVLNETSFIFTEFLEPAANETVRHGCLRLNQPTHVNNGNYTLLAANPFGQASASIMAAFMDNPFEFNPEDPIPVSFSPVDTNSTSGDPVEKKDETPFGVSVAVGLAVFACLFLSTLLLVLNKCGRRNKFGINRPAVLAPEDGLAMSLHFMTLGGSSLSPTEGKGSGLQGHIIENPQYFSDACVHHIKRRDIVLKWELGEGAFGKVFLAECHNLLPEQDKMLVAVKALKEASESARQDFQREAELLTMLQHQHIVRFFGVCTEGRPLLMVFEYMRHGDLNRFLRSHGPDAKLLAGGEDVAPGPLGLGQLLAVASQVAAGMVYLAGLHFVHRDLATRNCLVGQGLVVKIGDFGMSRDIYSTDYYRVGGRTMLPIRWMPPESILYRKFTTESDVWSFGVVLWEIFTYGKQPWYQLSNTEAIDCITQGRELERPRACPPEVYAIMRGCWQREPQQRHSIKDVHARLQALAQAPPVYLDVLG

DRAK1 = biological target: T2, DRAK1 (Homo sapiens, UniProt Q9UEE5); assay: Millipore (UBI) kinase panel DRAK1; format: biochemical; settings: generated at millipore (UBI) kinase panel
T2 construct: purchased Millipore/UBI

AKT1 = AKT1 (Homo sapiens, UniProt P31749); assay: Biochemical kinase profiling AKT1
Chain of AKT1 (P31749 whole entry): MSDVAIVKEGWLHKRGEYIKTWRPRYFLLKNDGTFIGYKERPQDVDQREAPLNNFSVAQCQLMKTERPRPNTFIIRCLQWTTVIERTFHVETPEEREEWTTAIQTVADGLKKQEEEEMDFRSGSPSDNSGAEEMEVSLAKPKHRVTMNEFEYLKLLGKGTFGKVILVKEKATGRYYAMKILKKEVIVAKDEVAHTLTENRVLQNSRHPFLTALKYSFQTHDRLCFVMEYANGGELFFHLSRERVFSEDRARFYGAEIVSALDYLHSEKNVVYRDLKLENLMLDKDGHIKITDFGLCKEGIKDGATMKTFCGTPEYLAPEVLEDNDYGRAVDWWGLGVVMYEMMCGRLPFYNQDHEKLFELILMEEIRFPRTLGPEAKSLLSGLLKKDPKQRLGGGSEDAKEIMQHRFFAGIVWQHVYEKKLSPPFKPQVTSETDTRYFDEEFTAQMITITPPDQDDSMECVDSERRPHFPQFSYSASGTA

[4] = PK/PD model, colo-205 bearing mice, continuous dosing ref 37; cited from earlier work
Aurora A = Aurora A (Homo sapiens, UniProt O14965); assay: Biochemical kinase profiling Aurora A
Chain of Aurora A (O14965 whole entry): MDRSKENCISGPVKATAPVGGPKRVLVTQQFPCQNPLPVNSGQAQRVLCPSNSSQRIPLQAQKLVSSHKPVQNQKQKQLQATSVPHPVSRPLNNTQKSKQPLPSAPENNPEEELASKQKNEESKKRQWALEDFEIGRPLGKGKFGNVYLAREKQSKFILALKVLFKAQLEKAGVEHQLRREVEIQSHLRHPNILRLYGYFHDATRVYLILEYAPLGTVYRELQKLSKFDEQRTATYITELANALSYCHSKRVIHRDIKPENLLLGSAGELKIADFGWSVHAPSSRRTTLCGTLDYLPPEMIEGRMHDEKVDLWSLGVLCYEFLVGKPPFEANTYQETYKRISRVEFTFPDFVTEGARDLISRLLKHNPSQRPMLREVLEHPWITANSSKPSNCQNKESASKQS

PLK3 = PLK3 (Homo sapiens, UniProt Q9H4B4); assay: Biochemical kinase profiling PLK3
Chain of PLK3 (Q9H4B4 whole entry): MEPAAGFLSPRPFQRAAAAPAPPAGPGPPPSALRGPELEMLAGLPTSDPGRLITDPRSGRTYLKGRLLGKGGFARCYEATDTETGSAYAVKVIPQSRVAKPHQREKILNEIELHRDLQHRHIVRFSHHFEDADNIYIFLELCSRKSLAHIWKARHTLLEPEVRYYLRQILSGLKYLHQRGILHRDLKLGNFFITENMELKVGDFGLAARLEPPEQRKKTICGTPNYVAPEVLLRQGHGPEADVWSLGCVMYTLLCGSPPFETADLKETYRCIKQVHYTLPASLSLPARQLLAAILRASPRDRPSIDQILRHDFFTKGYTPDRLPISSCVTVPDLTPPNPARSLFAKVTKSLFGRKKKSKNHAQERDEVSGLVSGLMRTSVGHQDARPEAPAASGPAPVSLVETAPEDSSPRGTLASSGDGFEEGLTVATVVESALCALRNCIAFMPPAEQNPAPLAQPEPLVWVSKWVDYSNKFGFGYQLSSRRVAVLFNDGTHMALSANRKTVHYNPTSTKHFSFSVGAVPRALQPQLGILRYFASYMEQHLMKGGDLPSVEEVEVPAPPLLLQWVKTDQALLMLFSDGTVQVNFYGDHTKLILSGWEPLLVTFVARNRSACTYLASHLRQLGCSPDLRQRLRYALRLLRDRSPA

pRb (pSer780) colo-205 = assay: Cellular assay for inhibition of p-Rb (Ser780), colo-205 (Acumen); format: cell-based; settings: Homo sapiens, Fig. 2a, as given in discussion
Method: as §1, §2

pERK HCT116 = assay: pERK inhibition, HCT116; format: cell-based; settings: Homo sapiens, HCT-116; read-out: pERK inh. HCT116 IC50
Aurora B = Aurora B (Homo sapiens, UniProt Q96GD4); assay: Biochemical kinase profiling Aurora B
Chain of Aurora B (Q96GD4 whole entry): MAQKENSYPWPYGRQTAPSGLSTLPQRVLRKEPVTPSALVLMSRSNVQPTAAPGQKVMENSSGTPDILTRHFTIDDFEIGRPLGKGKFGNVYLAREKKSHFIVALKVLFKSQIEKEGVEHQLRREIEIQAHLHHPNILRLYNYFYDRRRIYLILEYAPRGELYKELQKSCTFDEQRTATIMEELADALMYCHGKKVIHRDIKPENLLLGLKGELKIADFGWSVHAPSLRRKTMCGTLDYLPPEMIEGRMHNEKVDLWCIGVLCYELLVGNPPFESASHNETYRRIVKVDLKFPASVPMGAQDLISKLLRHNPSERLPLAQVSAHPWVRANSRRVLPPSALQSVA

[5] = tested on: p-Rb, TopoIIα, pHH3 in colo-205 xenografts; settings: 24 h after oral dosing
[6] = tested on: Rb-deficient MDA-MB-468 breast cancer cells; assay: Flow cytometry cell cycle distribution, MDA-MB-468; format: cell-based, human; settings: MDA-MB-468, concentrations up to 2,500 nmol/L
cRaf = cRaf (Homo sapiens, UniProt P04049); assay: Biochemical kinase profiling cRaf
[7] = Tolerability in colo-205 xenograft-bearing mice; format: in vivo; settings: 56-day schedules
Method: (§5) All animal studies were performed in accordance with American Association for Laboratory Animal Care institutional guidelines, and all protocols were approved by the Eli Lilly and Company Animal Care and Use Committee. Tumor cell lines were grown, harvested, and resuspended in a 1:1 mixture of serum-free media and matrigel (BD Biosciences), and 5 × 10^6 cells were injected subcutaneously in the rear flank of 5-to-6-week-old CD1 nu/nu female mice (Charles River Laboratories for MV4-11, mice from Harlan Laboratories for others). Tumor volume was estimated by using the formula: vol = l × w^2 × 0.536, where one and w are perpendicular measured diameters, and one is greater than or equal to w.
When the mean tumor volume was approximately 150–300 mm^3, animals were randomized by tumor volume and the compound was administered. […]. Gemcitabine was formulated in saline and administered by intraperitoneal injection. Tumor volume and body weight were measured twice weekly. When tumors were collected for biomarker analysis, the animals were asphyxiated with CO2 and the xenograft tumors excised, flash frozen in liquid nitrogen, and stored at −80 °C until analyzed. […] The log volume data were analyzed with a 2-way repeated measures analysis of variance by time and treatment using the MIXED procedure in SAS software (version 9.2). […]

[8] = tested on: Colo-205 colorectal xenografts; assay: Subcutaneous colo-205 xenograft antitumor activity; format: in vivo, mice; settings: colo-205 xenografts
Method: as §5, with “others).” for “others). Tumor volume was estimated by using the formula: vol = l × w^2 × 0.536, where one and w are perpendicular measured diameters, and one is greater than or equal to w.”
When the mean tumor volume was approximately 150–300 mm^3, animals were randomized by tumor volume and the compound was administered. […] Gemcitabine was formulated in saline and administered by intraperitoneal injection. Tumor volume and body weight were measured twice weekly. When tumors were collected for biomarker analysis, the animals were asphyxiated with CO2 and the xenograft tumors excised, flash frozen in liquid nitrogen, and stored at −80 °C until analyzed. For analysis, tumor volume data were transformed to a log scale to equalize variance across time and treatment groups. The log volume data were analyzed with a 2-way repeated measures analysis of variance by time and treatment using the MIXED procedure in SAS software (version 9.2). The correlation model for the repeated measures was spatial power. Treated groups are compared to the control group at each time point.

HIPK2 = biological target: T3, HIPK2 (Homo sapiens, UniProt Q9H2X6); assay: Millipore (UBI) kinase panel HIPK2; format: biochemical; settings: generated at millipore (UBI) kinase panel
T3 construct: purchased Millipore/UBI
T3 sequence (Q9H2X6 whole entry): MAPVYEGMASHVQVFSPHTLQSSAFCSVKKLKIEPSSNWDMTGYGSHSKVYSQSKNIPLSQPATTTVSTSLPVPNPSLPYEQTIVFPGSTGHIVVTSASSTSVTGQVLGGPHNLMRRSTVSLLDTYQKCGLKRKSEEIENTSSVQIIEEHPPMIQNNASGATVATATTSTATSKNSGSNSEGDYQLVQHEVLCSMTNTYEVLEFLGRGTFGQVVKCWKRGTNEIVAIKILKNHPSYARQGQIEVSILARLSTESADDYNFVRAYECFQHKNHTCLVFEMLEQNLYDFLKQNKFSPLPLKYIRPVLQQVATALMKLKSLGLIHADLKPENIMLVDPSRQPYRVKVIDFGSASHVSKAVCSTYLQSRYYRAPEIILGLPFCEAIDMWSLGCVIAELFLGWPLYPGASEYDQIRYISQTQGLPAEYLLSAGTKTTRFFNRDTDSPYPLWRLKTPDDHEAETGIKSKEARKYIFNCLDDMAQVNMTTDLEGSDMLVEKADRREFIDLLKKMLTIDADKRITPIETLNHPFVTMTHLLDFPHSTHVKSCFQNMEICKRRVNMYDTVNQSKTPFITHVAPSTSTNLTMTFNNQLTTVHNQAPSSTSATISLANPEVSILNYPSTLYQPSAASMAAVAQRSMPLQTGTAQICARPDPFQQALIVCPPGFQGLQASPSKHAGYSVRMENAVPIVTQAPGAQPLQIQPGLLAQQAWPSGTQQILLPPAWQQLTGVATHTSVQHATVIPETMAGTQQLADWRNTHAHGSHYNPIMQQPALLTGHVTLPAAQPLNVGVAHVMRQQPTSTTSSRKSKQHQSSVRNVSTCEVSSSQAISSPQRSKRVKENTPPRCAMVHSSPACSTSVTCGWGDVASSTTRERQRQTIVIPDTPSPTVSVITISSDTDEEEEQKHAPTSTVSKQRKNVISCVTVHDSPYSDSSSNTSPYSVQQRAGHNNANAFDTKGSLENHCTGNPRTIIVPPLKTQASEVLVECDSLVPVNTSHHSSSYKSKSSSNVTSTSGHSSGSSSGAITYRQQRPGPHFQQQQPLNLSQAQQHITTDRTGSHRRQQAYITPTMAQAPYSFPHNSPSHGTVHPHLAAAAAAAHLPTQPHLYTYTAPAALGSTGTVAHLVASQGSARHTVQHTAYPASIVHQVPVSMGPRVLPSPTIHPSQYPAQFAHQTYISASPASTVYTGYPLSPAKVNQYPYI

ERK1 = ERK1 (Homo sapiens, UniProt P27361); assay: Biochemical kinase profiling ERK1
Chain of ERK1 (P27361 whole entry): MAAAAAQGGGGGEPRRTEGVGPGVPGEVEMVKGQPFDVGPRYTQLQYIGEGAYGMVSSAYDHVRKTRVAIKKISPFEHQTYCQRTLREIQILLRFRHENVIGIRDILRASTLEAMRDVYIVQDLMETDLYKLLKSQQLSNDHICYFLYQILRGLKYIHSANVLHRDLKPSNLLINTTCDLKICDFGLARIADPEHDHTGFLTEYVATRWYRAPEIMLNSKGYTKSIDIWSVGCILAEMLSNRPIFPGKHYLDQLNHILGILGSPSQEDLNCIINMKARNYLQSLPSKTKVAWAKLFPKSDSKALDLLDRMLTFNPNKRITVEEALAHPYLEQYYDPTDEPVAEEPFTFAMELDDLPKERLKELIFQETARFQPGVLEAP

PLK1 = PLK1 (Homo sapiens, UniProt P53350); assay: Biochemical kinase profiling PLK1
Chain of PLK1 (P53350 whole entry): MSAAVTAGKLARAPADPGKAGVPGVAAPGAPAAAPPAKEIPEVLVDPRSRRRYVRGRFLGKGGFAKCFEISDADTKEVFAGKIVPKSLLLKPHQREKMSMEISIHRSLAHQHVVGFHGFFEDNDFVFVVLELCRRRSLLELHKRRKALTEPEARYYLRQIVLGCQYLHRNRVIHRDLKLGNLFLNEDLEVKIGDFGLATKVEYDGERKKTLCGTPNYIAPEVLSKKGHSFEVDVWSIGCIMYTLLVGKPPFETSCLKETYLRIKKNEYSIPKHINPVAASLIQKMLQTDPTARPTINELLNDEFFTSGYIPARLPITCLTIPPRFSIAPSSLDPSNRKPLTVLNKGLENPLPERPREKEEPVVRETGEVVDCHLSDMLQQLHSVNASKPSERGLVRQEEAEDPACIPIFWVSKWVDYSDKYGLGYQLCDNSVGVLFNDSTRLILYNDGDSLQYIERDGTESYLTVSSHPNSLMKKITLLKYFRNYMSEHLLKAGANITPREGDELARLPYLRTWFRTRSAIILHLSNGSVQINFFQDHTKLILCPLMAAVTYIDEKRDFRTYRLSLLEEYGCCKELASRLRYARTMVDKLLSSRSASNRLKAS

bRaf = bRaf (Homo sapiens, UniProt P15056); assay: Biochemical kinase profiling bRaf
pERK A375 = assay: pERK inhibition, A375; format: cell-based; settings: Homo sapiens, A-375; read-out: pERK inh. A375 IC50
[9] = tested on: MV4-11 acute myelocytic leukemia (AML) cells; assay: Flow cytometry cell cycle distribution, MV4-11; format: cell-based, human
Method: as §3, §4

[10] = colo-205 xenograft dose response

Work on `CN1CC[C@H](c2c(O)cc(O)c3c(=O)cc(-c4ccccc4Cl)oc23)[C@H](O)C1` [Flavopiridol] yielded an IC50 (pCTD (pSer2) U2OS) of 0.147 µM, a 2N cell population (U2OS cells; 2.2 µM) of 22% and a 4N cell population (U2OS cells; 2.2 µM) of 74%. The S cell population (U2OS cells; 2.2 µM) was 4%, the 2N cell population (U2OS cells; 6.6 µM) was 23% and the 4N cell population (U2OS cells; 6.6 µM) was 72%. For the same compound, the S cell population (U2OS cells; 6.6 µM) was 5%, the 2N cell population (colo-205 cells; 2.2 µM) was 54% and the 4N cell population (colo-205 cells; 2.2 µM) was 44%. The S cell population (colo-205 cells; 2.2 µM) was 2%, the 2N cell population (colo-205 cells; 6.6 µM) was 50% and the 4N cell population (colo-205 cells; 6.6 µM) was 49%. For the same compound, the S cell population (colo-205 cells; 6.6 µM) was 1% and the EC50 (colo-205 cells; Homo sapiens, COLO 205, read-out: G1 arrest in Colo205 (increase in cells with 2N DNA content) EC50) was greater than 20 µM.
For `CCN1CCN(Cc2ccc(Nc3ncc(F)c(-c4cc(F)c5nc(C)n(C(C)C)c5c4)n3)nc2)CC1` [LY2835219, [5-(4-Ethyl-piperazin-1-ylmethyl)-pyridin-2-yl]-[5-fluoro-4-(7-fluoro-3-isopropyl-2-methyl-3H-benzoimidazol-5-yl)-pyrimidin-2-yl]-amine], the “mean maximum steady state plasma concentration” value [1] is listed as 562 nM, the “ability to cross the blood–brain barrier” value [2] is listed as “effectively cross the blood–brain barrier” and the “G1 arrest in Rb-proficient cells” value [3] is listed as “induced a G1 arrest”. The IC50 (TRKA) was 1.03 µM, the IC50 (DRAK1) was 0.659 µM and the IC50 (AKT1) was greater than 20 µM. For the same compound, the “minimum steady state trough plasma concentration required for robust efficacy” value [4] was “approximately 200 ng/mL; also recorded: approximately 400 nM”, the IC50 (Aurora A) was greater than 20 µM and the “activity against Aurora A” value (Aurora A) was “Complete lack of activity”. It also gave an IC50 (PLK3) greater than 20 µM, an IC50 (pRb (pSer780) colo-205) of roughly 0.1 µM and an IC50 (pERK HCT116) greater than 20 µM. The 2N cell population (U2OS cells; 2.2 µM) was 56%, the S cell population (U2OS cells; 2.2 µM) was 6% and the 2N cell population (U2OS cells; 6.6 µM) was 44%. The S cell population (U2OS cells; 6.6 µM) was 7%, the IC50 (Aurora B) was greater than 20 µM and the “activity against Aurora B” value (Aurora B) was “Complete lack of activity”. The “TED70 for in vivo inhibition of TopoII” value [5, 10] was 14 mg/kg, the “TED70 for in vivo inhibition of pRb” value [5, 10] was 14 mg/kg and the “doses at which p-Rb, TopoIIα and pHH3 were all significantly inhibited” value ([5]; colo-205 xenografts) was no less than 12.5 mg/kg. The “G1 arrest in Rb-deficient cells” value [6] was “no such effect”, the IC50 (cRaf) was greater than 20 µM and the 4N cell population (colo-205 cells; 2.2 µM) was 16%. The S cell population (colo-205 cells; 2.2 µM) was 0%, the 2N cell population (colo-205 cells; 6.6 µM) was 75% and the “histopathologic evaluation of intestinal tissue (jejunum, ileum, cecum)” value ([7]; days 41 and 69) was “no significant changes in intestinal tissue”. For the same compound, the hematologic changes ([7]; not dose-limiting) was “decreases in red cell mass and moderately reduced lymphocyte count”, the “minimally efficacious dose for tumor growth inhibition” value [8] was 12.5 mg/kg and the IC50 (HIPK2) was 0.031 µM. The IC50 (ERK1) was greater than 20 µM, the IC50 (PLK1) was greater than 20 µM and the “activity against PLK1” value (PLK1) was “Complete lack of activity”. The IC50 (bRaf) was 6.33 µM, the IC50 (pERK A375) was greater than 20 µM and the “compound concentration up to which G1 arrest was sustained” value ([9]; MV4-11) was “up to 5,000 nmol/L”. For the same compound, the “concentration at which maximum G1 arrest was seen” value ([9]; MV4-11, 24 h) was no less than 320 nmol/L.
